Measured values from PubChem BioAssay (NCI).
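Step 1: Grow cells in 96-well plates. Step 2: Expose to compound for 48 hours at 5 concentrations. Step 3: Interpolate endpoints linearly; if unreached, use highest concentration. GI50 is the concentration that inhibits growth by half. TGI: total growth inhibition.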 Where a SMILES comes first, the peptide text is derived from it. The star is where a group is joined. Cbz = O=C(OCc1ccccc1)*; Boc = CC(C)(C)OC(=O)*; OBn = c1ccc(CO*)cc1

How the values were obtained:
Test in all cases: NCI anticancer screen, dose series, 48 h
[1] = tested on: A498 renal
[2] = tested on: BT-549 breast
[3] = tested on: DU-145 prostate
[4] = tested on: HCT-116 colon
[5] = tested on: K-562 leukemia
[6] = tested on: M14 melanoma
[7] = tested on: MDA-MB-435
[8] = tested on: OVCAR-3 ovarian
[9] = tested on: OVCAR-8 ovarian
[10] = tested on: SK-MEL-2 melanoma
[11] = tested on: UACC-257 melanoma
[12] = tested on: CAKI-1 renal
[13] = tested on: CCRF-CEM leukemia
[14] = tested on: HCC-2998 colon
[15] = tested on: SNB-75 CNS

Structure (SMILES) | TGI [1] | TGI [2] | TGI [3] | TGI [4] | TGI [5] | TGI [6] | TGI [7] | TGI [8] | TGI [9] | TGI [10] | TGI [11] | TGI [12] | TGI [13] | TGI [14] | TGI [15] | GI50 [13] | GI50 [4]
N#CCCN(CCC#N)c1ccc(/C=C2\N=C(c3ccccc3)N(NC(=O)c3ccncc3)C2=O)cc1 | > 100 µM | > 100 µM | > 100 µM | > 100 µM | > 100 µM | > 100 µM | > 100 µM | > 100 µM | > 100 µM | > 100 µM | > 100 µM |  |  |  |  |  | 
CSC(=S)Nc1cc(C)ccn1 |  |  | > 100 µM | > 100 µM | > 100 µM | > 100 µM | > 100 µM | > 100 µM | > 100 µM | > 100 µM | > 100 µM | > 100 µM | > 100 µM | > 100 µM | > 100 µM |  | 
COC(=O)[C@H]1[C@H](OC(=O)[C@@H](OC)c2ccccc2)ON2CC[C@@H](OC(=O)c3ccccc3)[C@H]12 | 23.1 µM |  | > 100 µM | > 100 µM | > 100 µM | > 100 µM | > 100 µM |  | > 100 µM | > 100 µM | > 100 µM | > 100 µM | > 100 µM | > 100 µM | 65.1 µM |  | 
c1ccc2c(c1)SCCCSCCCS2 |  | > 100 µM | > 100 µM | > 100 µM | > 100 µM | > 100 µM | > 100 µM | > 100 µM | > 100 µM |  | > 100 µM |  | > 100 µM | > 100 µM | > 100 µM |  | 
COc1ccc(OC)c(CC(=O)c2ccc(O)c(C(=O)NCCc3ccc(F)cc3)c2)c1 | 47 µM | 38.5 µM |  | 19.9 µM | > 100 µM | 9.2 µM |  | 3.17 µM | 21.8 µM | 12.3 µM | 44.8 µM | 14.5 µM | 6.65 µM | 13.1 µM | 6.9 µM | 2.4 µM | 4.05 µM
COC(=O)C(CCCCNC(=O)OCc1ccccc1)NC(=O)C(CCC(=O)OCc1ccccc1)NC(=O)OC(C)(C)C (configuration not stated) (Boc-Glu(OBn)-Lys(Cbz)-OMe; configuration not given here) | 66.5 µM | > 100 µM | > 100 µM | > 100 µM | > 100 µM | > 100 µM | > 100 µM | > 100 µM | > 100 µM |  |  | > 100 µM |  |  | > 100 µM |  | 
CCC/C(Cl)=N/OC(=O)Nc1cccc(F)c1 |  | 10.4 µM | 31.6 µM | 18.6 µM | 8.87 µM | 14.7 µM | 24.8 µM | 6.6 µM | 37.4 µM | 33.4 µM | 28 µM | 7.77 µM |  | 30.4 µM | 28.3 µM |  | 
O=C(CN1c2ccccc2Sc2ccccc21)n1cnc2ccccc21 | > 100 µM | > 100 µM | > 100 µM | > 100 µM | > 100 µM | > 100 µM | > 100 µM | > 100 µM | > 100 µM | > 100 µM | > 100 µM |  | > 100 µM |  | > 100 µM |  | 
CCCN=C1S/C(=C/c2ccc(OC)c(OC)c2)C(=O)N1c1ccccc1 | 58.2 µM | > 100 µM |  | > 100 µM | > 100 µM | > 100 µM | > 100 µM | 43.3 µM | > 100 µM | 85.8 µM | > 100 µM | > 100 µM | > 100 µM | > 100 µM |  |  | 
c1ccc2c(-c3ccnc(-c4c[nH]c5ccccc45)n3)c[nH]c2c1 | 5.33 µM | > 100 µM | 44.5 µM | 15.4 µM | > 100 µM |  | > 100 µM | > 100 µM | 22.9 µM | > 100 µM | > 100 µM | 74.6 µM | 3.32 µM |  |  |  | 
COc1ccc(/C=N/Nc2nc3ccccc3c(=O)n2-c2ccccc2)cc1 | > 100 µM |  | > 100 µM | > 100 µM | > 100 µM | > 100 µM | > 100 µM | > 100 µM | > 100 µM | > 100 µM | > 100 µM | > 100 µM | > 100 µM | > 100 µM | > 100 µM |  | 
C[C@H]1ON2CCC[C@@H]2[C@@H]1C(=O)N1C2CC3CCC2(CS1(=O)=O)C3(C)C (some centres not stated) | > 100 µM |  | > 100 µM | > 100 µM | > 100 µM | > 100 µM | > 100 µM | > 100 µM | > 100 µM | > 100 µM | > 100 µM | > 100 µM | > 100 µM | > 100 µM | > 100 µM |  | 
O=C1C2=Cc3ccccc3CCN2c2ccc([N+](=O)[O-])cc21 | > 100 µM |  | > 100 µM | > 100 µM | > 100 µM | > 100 µM | > 100 µM | > 100 µM | > 100 µM |  | > 100 µM | > 100 µM | > 100 µM | > 100 µM | > 100 µM |  | 
